Test results published in patent publication EP2818472A1, “Imidazo[4,5-c]pyridine and pyrrolo[3,2-c]pyridine compounds as G-protein-coupled receptor kinase 5 (GRK5) modulators” (Max-Planck-Gesellschaft zur Förderung der Wissenschaften …, priority 2013, dated 2014).

What follows are compounds tested on beta-TC6 cells (assay: Insulin HTRF assay (relative activity Ar) in beta-TC6 cells). Details: Mus musculus, Beta-TC6, 4 h, insulin HTRF, supernatant of beta-TC6 cells, incubation with test compound at 37°C for 2, 3, 4h; read-out: Ar (relative activity).
Assay type: cell-based, mouse
Method in brief: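 beta-TC6 cells (15k/well, seeded 24 or 48 h) washed, then exposed to compound in induction buffer (0.5% DMSO final) for 2, 3 or 4 h at 37°C.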
With `Oc1ccc(Nc2nccc3[nH]c(-c4cccc(F)c4)cc23)cc1` [Compound 199, 4-[[2-(3-fluorophenyl)-1H-pyrrolo[3,2-c]pyridin-4-yl]amino]phenol] the Emax was 50 to 100%.
For `Fc1cccc(-c2cc3c(Nc4cccnc4)nccc3[nH]2)c1` [Compound 200, 2-(3-fluorophenyl)-N-(3-pyridyl)-1H-pyrrolo[3,2-c]pyridin-4-amine], the Emax was 30 to 50%.
`CN1CCN(c2ccc(Nc3nccc4[nH]c(-c5cccc(F)c5)cc34)cc2)CC1` [Compound 201, 2-(3-fluorophenyl)-N-[4-(4-methylpiperazin-1-yl)phenyl]-1H-pyrrolo[3,2-c]pyridin-4-amine] was tested, and the Emax was 30 to 50%.
In the case of `CS(=O)(=O)c1cccc(Nc2nccc3[nH]c(-c4cccc(F)c4)cc23)c1` [Compound 202, 2-(3-fluorophenyl)-N-(3-methylsulfonylphenyl)-1H-pyrrolo[3,2-c]pyridin-4-amine], the Emax is reported as 30 to 50%.
`Fc1cccc(-c2cc3c(Nc4ccc5c(c4)OCO5)nccc3[nH]2)c1` [Compound 203, N-(1,3-benzodioxol-5-yl)-2-(3-fluorophenyl)-1H-pyrrolo[3,2-c]pyridin-4-amine] showed an Emax of 30 to 50%.
With `COc1ccc(Nc2nccc3[nH]c(-c4cccc(F)c4)cc23)cc1O` [Compound 204, 5-[[2-(3-fluorophenyl)-1H-pyrrolo[3,2-c]pyridin-4-yl]amino]-2-methoxy-phenol] the Emax was 50 to 100%.
For `CS(=O)(=O)Nc1cccc(Nc2nccc3[nH]c(-c4cccc(F)c4)cc23)c1` [Compound 205, N-[3-[[2-(3-fluorophenyl)-1H-pyrrolo[3,2-c]pyridin-4-yl]amino]phenyl]methanesulfonamide], the Emax was 50 to 100%.
`CC(=O)Nc1cccc(Nc2nccc3[nH]c(-c4cccc(F)c4)cc23)c1` [Compound 206, N-[3-[[2-(3-fluorophenyl)-1H-pyrrolo[3,2-c]pyridin-4-yl]amino]phenyl]acetamide] showed an Emax of 50 to 100%.
Compound `CS(=O)(=O)c1ccc(Nc2nccc3[nH]c(-c4cccc(F)c4)cc23)cc1` [Compound 207, 2-(3-fluorophenyl)-N-(4-methylsulfonylphenyl)-1H-pyrrolo[3,2-c]pyridin-4-amine] has an Emax of 50 to 100%.
In the case of `COc1ccc(Nc2nccc3c2cc(-c2cccc(F)c2)n3C)cc1OC` [Compound 208, N-(3,4-dimethoxyphenyl)-2-(3-fluorophenyl)-1-methyl-pyrrolo[3,2-c]pyridin-4-amine], the Emax is reported as 30 to 50%.
Work on `CN1CCN(c2ccc(Nc3nccc4c3cc(-c3cccc(F)c3)n4C)cc2)CC1` [Compound 209, 2-(3-fluorophenyl)-1-methyl-N-[4-(4-methylpiperazin-1-yl)phenyl]pyrrolo[3,2-c]pyridin-4-amine] yielded an Emax of 50 to 100%.
`CC(=O)Nc1cccc(Nc2nccc3c2cc(-c2cccc(F)c2)n3C)c1` [Compound 210, N-[3-[[2-(3-fluorophenyl)-1-methyl-pyrrolo[3,2-c]pyridin-4-yl]amino]phenyl]acetamide] showed an Emax of 30 to 50%.
Work on `CC(=O)Nc1ccc(Nc2nccc3c2cc(-c2ccc(C(=O)N(C)C)cc2)n3C)cc1` [Compound 211, 4-[4-(4-acetamidoanilino)-1-methyl-pyrrolo[3,2-c]pyridin-2-yl]-N,N-dimethyl-benzamide] yielded an Emax of 30 to 50%.
`COc1cccc(Nc2nccc3c2cc(-c2ccc(C(=O)N(C)C)cc2)n3C)c1` [Compound 212, 4-[4-(3-methoxyanilino)-1-methyl-pyrrolo[3,2-c]pyridin-2-yl]-N,N-dimethyl-benzamide] was tested, and the Emax was 30 to 50%.
Work on `CN(C)C(=O)c1ccc(-c2cc3c(Nc4ccc(C(N)=O)cc4)nccc3n2C)cc1` [Compound 213, 4-[4-(4-carbamoylanilino)-1-methyl-pyrrolo[3,2-c]pyridin-2-yl]-N,N-dimethyl-benzamide] yielded an Emax of 50 to 100%.
`CN(C)C(=O)c1ccc(-c2cc3c(Nc4ccc5c(c4)OCCO5)nccc3n2C)cc1` [Compound 214, 4-[4-(2,3-dihydro-1,4-benzodioxin-6-ylamino)-1-methyl-pyrrolo[3,2-c]pyridin-2-yl]-N,N-dimethyl-benzamide] gave an Emax of 50 to 100%.
In the case of `COc1ccc(Nc2nccc3c2cc(-c2ccc(C(=O)N(C)C)cc2)n3C)cc1OC` [Compound 215, 4-[4-(3,4-dimethoxyanilino)-1-methyl-pyrrolo[3,2-c]pyridin-2-yl]-N,N-dimethyl-benzamide], the Emax is reported as 50 to 100%.
For `COc1ccc(Nc2nccc3c2cc(-c2ccc(C(=O)N(C)C)cc2)n3C)cn1` [Compound 216, 4-[4-[(6-methoxy-3-pyridyl)amino]-1-methyl-pyrrolo[3,2-c]pyridin-2-yl]-N,N-dimethyl-benzamide], the Emax was 50 to 100%.
In the case of `CN(C)C(=O)c1ccc(-c2cc3c(Nc4ccc(Oc5ccccc5)cc4)nccc3n2C)cc1` [Compound 217, N,N-dimethyl-4-[1-methyl-4-(4-phenoxyanilino)pyrrolo[3,2-c]pyridin-2-yl]benzamide], the Emax is reported as 0 to 30%.
In the case of `CN(C)C(=O)c1ccc(-c2cc3c(Nc4cccc(N(C)C)c4)nccc3n2C)cc1` [Compound 218, 4-[4-[3-(dimethylamino)anilino]-1-methyl-pyrrolo[3,2-c]pyridin-2-yl]-N,N-dimethyl-benzamide], the Emax is reported as 50 to 100%.
In the case of `CN(C)C(=O)c1ccc(-c2cc3c(Nc4ccccn4)nccc3n2C)cc1` [Compound 219, N,N-di methyl-4-[1-methyl-4-(2-pyridylamino)pyrrolo[3,2-c]pyridin-2-yl]benzamide], the Emax is reported as 30 to 50%.
Compound `COc1cc(Nc2nccc3c2cc(-c2ccc(C(=O)N(C)C)cc2)n3C)cc(C(F)(F)F)c1` [Compound 220, N,N-dimethyl-4-[1-methyl-4-(3-methoxy-5-(trifuloromethyl)phenylamino)pyrrolo[3,2-c]pyridin-2-yl]benzamide] has an Emax of 0 to 30%.
`CN(C)C(=O)c1ccc(-c2cc3c(Nc4cccc(O)c4)nccc3n2C)cc1` [Compound 221, 4-[4-(3-hydroxyanilino)-1-methyl-pyrrolo[3,2-c]pyridin-2-yl]-N,N-dimethyl-benzamide] was tested, and the Emax was 30 to 50%.
`CN(C)C(=O)c1ccc(-c2cc3c(Nc4cccc(OC(F)(F)F)c4)nccc3n2C)cc1` [Compound 222, N,N-dimethyl-4-[1-methyl-4-[3-(trifluoromethoxy)anilino]pyrrolo[3,2-c]pyridin-2-yl]benzamide] showed an Emax of 0 to 30%.
With `CN(C)C(=O)c1ccc(-c2cc3c(Nc4cccc(Oc5ccccc5)c4)nccc3n2C)cc1` [Compound 223, N,N-dimethyl-4-[1-methyl-4-(3-phenoxyanilino)pyrrolo[3,2-c]pyridin-2-yl]benzamide] the Emax was 0 to 30%.
Work on `CC(C)c1cccc(Nc2nccc3c2cc(-c2ccc(C(=O)N(C)C)cc2)n3C)c1` [Compound 224, 4-[4-(3-isopropylanilino)-1-methyl-pyrrolo[3,2-c]pyridin-2-yl]-N,N-dimethyl-benzamide] yielded an Emax of 0 to 30%.
`CN(C)C(=O)c1ccc(-c2cc3c(Nc4cccc(NS(C)(=O)=O)c4)nccc3n2C)cc1` [Compound 225, 4-[4-[3-(methanesulfonamido)anilino]-1-methyl-pyrrolo[3,2-c]pyridin-2-yl]-N,N-dimethyl-benzamide] gave an Emax of 30 to 50%.
With `CN(C)c1ccc(-c2cc3c(Nc4ccc(O)cc4)nccc3n2C)cc1` [Compound 226, 4-[[2-(4-dimethylaminophenyl)-1-methyl-pyrrolo[3,2-c]pyridin-4-yl]amino]phenol] the Emax was 50 to 100%.
`CN(C)c1ccc(-c2cc3c(Nc4ccc(C(N)=O)cc4)nccc3n2C)cc1` [Compound 227, 4-[[2-(4-dimethylaminophenyl)-1-methyl-pyrrolo[3,2-c]pyridin-4-yl]amino]benzamide] was tested, and the Emax was 30 to 50%.
Compound `COc1ccc(Nc2nccc3c2cc(-c2ccc(N(C)C)cc2)n3C)cc1O` [Compound 228, 5-[[2-(4-dimethylaminophenyl)-1-methyl-pyrrolo[3,2-c]pyridin-4-yl]amino]-2-methoxy-phenol] has an Emax of 50 to 100%.
For `CN(C)c1ccc(-c2cc3c(Nc4ccncn4)nccc3n2C)cc1` [Compound 229, 2-(4-dimethylaminophenyl)-1-methyl-N-pyrimidin-4-yl-pyrrolo[3,2-c]pyridin-4-amine], the Emax was > 100%.
Work on `CN(C)c1ccc(-c2cc3c(Nc4ccc(S(C)(=O)=O)cc4)nccc3n2C)cc1` [Compound 230, 2-(4-dimethylaminophenyl)-1-methyl-N-(4-methylsulfonylphenyl)pyrrolo[3,2-c]pyridin-4-amine] yielded an Emax of 30 to 50%.
`CC(=O)Nc1ccc(Nc2nccc3[nH]c(-c4cccnc4)cc23)cc1` [Compound 231, N-[4-[[2-(3-pyridyl)-1H-pyrrolo[3,2-c]pyridin-4-yl]amino]phenyl]acetamide] was tested, and the Emax was > 100%.
For `c1cncc(-c2cc3c(Nc4ccc5c(c4)OCCO5)nccc3[nH]2)c1` [Compound 232, N-(2,3-dihydro-1,4-benzodioxin-6-yl)-2-(3-pyridyl)-1H-pyrrolo[3,2-c]pyridin-4-amine], the Emax was 50 to 100%.
`COc1ccc(Nc2nccc3[nH]c(-c4cccnc4)cc23)cn1` [Compound 233, N-(6-methoxy-3-pyridyl)-2-(3-pyridyl)-1H-pyrrolo[3,2-c]pyridin-4-amine] was tested, and the Emax was 50 to 100%.
Compound `c1cncc(Nc2nccc3[nH]c(-c4cccnc4)cc23)c1` [Compound 234, N,2-bis(3-pyridyl)-1H-pyrrolo[3,2-c]pyridin-4-amine] has an Emax of 50 to 100%.
For `CN1CCN(c2ccc(Nc3nccc4[nH]c(-c5cccnc5)cc34)cc2)CC1` [Compound 235, N-[4-(4-methylpiperazin-1-yl)phenyl]-2-(3-pyridyl)-1H-pyrrolo[3,2-c]pyridin-4-amine], the Emax was 50 to 100%.
`COc1ccc(Nc2nccc3[nH]c(-c4cccnc4)cc23)cc1O` [Compound 236, 2-methoxy-5-[[2-(3-pyridyl)-1H-pyrrolo[3,2-c]pyridin-4-yl]amino]phenol] showed an Emax of 50 to 100%.
`COc1cc(Nc2nccc3c2cc(-c2cccnc2)n3C)cc(OC)c1OC` [Compound 237, 1-methyl-2-(3-pyridyl)-N-(3,4,5-trimethoxyphenyl)pyrrolo[3,2-c]pyridin-4-amine] was tested, and the Emax was > 100%.
In the case of `COc1ccc(Nc2nccc3c2cc(-c2cccnc2)n3C)cc1OC` [Compound 238, N-(3,4-dimethoxyphenyl)-1-methyl-2-(3-pyridyl)pyrrolo[3,2-c]pyridin-4-amine], the Emax is reported as 30 to 50%.
